We go through two compounds from patent US8765729B2, “Cancer therapy” (Aeolus Sciences, Inc., priority 2001, dated 2014).

Series [1] can be described thus: SOD activity (cytochrome C method). The format is biochemical. The text has this: FIGS. 1A-1H show the structures of certain generic and specific definitions of compounds suitable for use in the present invention. With reference to FIG. 1C, mimetics of the invention can be of Formula I or Formula II, or dimeric forms thereof, an example of a dimeric form being shown in FIG. 1D. With reference to FIG. 1H, the SOD activities of certain of the depicted compounds are shown in Table 1 (as measured by the cytochrome C method): […]

The test system of series [2] is R3230 mammary adenocarcinoma cells in Z-chambers. Nature of the series: Tumor development in Z-chambers. Conditions: 6 mg/kg i.p. 24 hours before implantation of 2.5 mil./ml cells. The series is classed as in vivo, Fisher-344 rats. As to the method: FIG. 4. Animals were pretreated with different SOD mimetics (6 mg/kg i.p.) 24 hours before implantation of 2.5 mil./ml R3230 mammary adenocarcinoma cells in Z-chambers.
These chambers are constructed from customized plexi-glass rings with internal diameter of 10 mm and have a pore on the side. The two open surfaces are covered by nylon mesh (pore size 180 microns, Millipore, Mass.) and glued to the rings. Fibrinogen (Human fibrinogen, plasminogen depleted, CalBiochem) is prepared in DMEM, Gibco BRL) and a concentration of 4-5 mg/ml is utilized for the studies. Although the Fischer rats used in the study are immune competent, this purified batch of fibrinogen has been recognized to be very well conserved across species lines. It has already been shown that early angiogenic response to human fibrinogen is very similar to rat fibrinogen in fibrin gel chambers. The two different types of fibrinogen have also been tested in the Z-Chambers and no difference was found in angiogenic and healing response. Human fibrinogen was used.
The Fibrin Z-Chambers have fibrinogen solution poured inside the chamber through the pore and followed by 2 units of thrombin. […]
The Z-Chambers were harvested on day 1 or 12 post surgery. […] The depth of either the tumor tissue (tumor growth) or granulation tissue (wound healing) was measured with calipers on the 4×6 inch print. […]

Series [3] relates to oral mucositis induced by acute radiation. The series can be described thus: Oral mucositis induced by acute radiation in hamsters. The format is in vivo. As to the method: Forty hamsters were given an acute radiation dose directed to their oral mucosa. Test materials will be applied by injection, or topically (three times per day) beginning the day before radiation and continuing until day 20. Mucositis were evaluated on alternate days beginning on day 6 (day of radiation=day 0) and continuing until the conclusion of the experiment on day 28.
Forty (40) hamsters were used. The hamsters were randomized into five (5) groups of eight (8) animals each. Each group was assigned a different treatment of 0.2 ml tid as follows:
Parameters measured included the mucositis score, weight change and survival. For the evaluation of mucositis, the animals were anesthetized with inhalation anesthetics ([…] or Halothane), and the left pouch everted. Mucositis was scored both clinically during the laboratory portion of the study and in a blinded manner (at the conclusion of the study). Clinical scoring was performed by visual comparison to a validated photographic scale, ranging from 0 for normal, to 5 for severe ulceration.
• 0 Pouch completely healthy. No erythema or vasodilation • 1 Light to […] erythema and vasodilation. No erosion of mucosa • 2 Severe erythema and vasodilation. Erosion of superficial aspects of mucosa leaving denuded areas. Decreased stippling of mucosa. • 3 Formation of off-white ulcers in one or more places. Ulcers may have a yellow/gray due to pseudomembrane. Cumulative size of ulcers should equal about ¼ of the pouch. Severe erythema and vasodilation. • 4 Cumulative seize of ulcers should equal about ½ of the pouch. Loss of pliability. Severe erythema and vasodilation. • 5 Virtually all of pouch is ulcerated. Loss of pliability (pouch can only partially be extracted from mouth) A score of 1-2 is considered to represent a mild stage of the disease, whereas a score 3-5 is considered to indicate moderate to severe mucositis. Results
Chi-square analysis of the total number of days the animals in each group spent with a score of three or more. This statistic is a measure of severity of ulceration, a clinically important outcome. Significant efficacy is indicated in red.

Setting [4] is: high dose IP (1 mg/ml tid), total days 192.
Where [5] appears, read: high dose topical (1 mg/ml tid), total days 192.
The mark [6] stands for this setting: low dose IP (0.25 mg/ml tid), total days 192.
The mark [7] stands for this setting: low dose topical (0.25 mg/ml tid), total days 182.

Consider “CuZn-SOD: dimeric copper- and zinc-containing enzyme found in the cytosol of all cells”, for which, in series [1], the SOD activity is 2,200 U/mg.
In the case of `CCn1cc[n+](CC)c1-c1c2nc(c(-c3n(CC)cc[n+]3CC)c3ccc([nH]3)c(-c3n(CC)cc[n+]3CC)c3nc(c(-c4n(CC)cc[n+]4CC)c4ccc1[nH]4)C=C3)C=C2.[Mn+3]` [Compound 10150, manganese(III)tetrakis(N-diethylimidazolium-2,5-yl)porphyrin], the tumor development entry in series [2] is given as “Significant (p<0.01) inhibition of tumor development”. Also, the SOD activity in series [1] is on record as 14,789 U/mg. For the same compound, the “Percent Days > 3” value in series [3] (INC-01, 0.25 mg/ml IP, control 45.8, P 0.001) is reported as 18.8%; in series [3] (INC-01, 0.25 mg/ml Topical, control 45.8, P 0.953), 45.6%; in series [3] (INC-01, 1 mg/ml IP, control 45.8, P 0.005), 31.3%; in series [3] (INC-01, 1 mg/ml Topical, control 45.8, P 0.148), 38%; in series [3] (INC-02, 0.25 mg/ml IP, control 43.3, P 0.004), 28.6%; in series [3] (INC-02, 1.5 mg/ml IP, control 43.3, P 0.002), 27.6%. In addition, the “Percent Days > 3” value in series [3] (INC-02, 1.5 mg/ml Topical, control 43.3, P 0.298) worked out at 37.5%; in series [3] (INC-02, 5 mg/ml Topical, control 43.3, P 0.002) it was 27.6%; in series [3] (INC-03, 1 mg/ml IP, control 33.3, P 0.113) it was 38.1%; in series [3] (INC-04, 0.25 mg/ml IP, control 43.9, P 0.485) it was 47.3%; in series [3] (INC-05, 0.25 mg/ml IP, control 68.8, P 0.001), 42.1%; in series [3] (INC-05, 1.5 mg/ml IP, control 68.8, P 0.001), 33.3%. For the same compound, the “reduction in the percent of days with Mucositis Scores ≧3” value in series [3] (IP, 0.2 ml of 0.25 mg/ml TID, 1.5 mg/kg/day) worked out at 59%. Also, the “Days < 3” value in series [3] (setting [4]) is 132; in series [3] (setting [5]), 119; in series [3] (setting [6]) it was 156; in series [3] (setting [7]) it was 99. The “Days >= 3” value in series [3] (setting [4]) is 60; in series [3] (setting [5]) it was 73; in series [3] (setting [6]) it was 36; in series [3] (setting [7]) it was 83. In addition, the “% Days >= 3” value in series [3] (high dose IP, control 45.8, P 0.005) is 31.3%; in series [3] (high dose topical, control 45.8, P 0.148) it was 38.0%; in series [3] (low dose IP, control 45.8, P <0.001), 18.8%; in series [3] (low dose topical, control 45.8, P 0.953) it was 45.6%. In addition, the mucositis severity entry in series [3] (high dose topical, not statistically significant) was “tended to reduce mucositis severity”. Further, the “severity of mucositis associated with radiation therapy” value in series [3] (most evident with IP administration) was “markedly reduces the severity of mucositis”. In series [3] (topical dosing, both concentrations), the “incidence of severe mucositis” value is listed as “not in either group treated by topical dosing”.
